Like-named read-outs stand apart in the source and are kept apart here.
Test system: 134 cancer cell lines
Test: Cell viability assay (ATPlite, 72 hours), IC50 on cancer cell line panel

## Cc1nc(NC(=O)N2CCC[C@H]2C(N)=O)sc1-c1ccnc(C(C)(C)C(F)(F)F)c1 [alpelisib]
HEC-6, read-out: IC50 in cell proliferation assay, HEC-6 cell line (EGFR p.A289V)
  IC50: 7.66 µM
Homo sapiens, 769-P, read-out: IC50 in cell proliferation assay, cell line 769-P
  IC50: 14.3 µM
Homo sapiens, 786-0, read-out: IC50 in cell proliferation assay, cell line 786-O
  IC50: > 31.6 µM
Homo sapiens, A 172, read-out: IC50 in cell proliferation assay, cell line A-172
  IC50: 19.6 µM
Homo sapiens, A204, read-out: IC50 in cell proliferation assay, cell line A-204
  IC50: 0.247 µM
Homo sapiens, A498, read-out: IC50 in cell proliferation assay, cell line A-498
  IC50: 14.4 µM
Homo sapiens, A549, read-out: IC50 in cell proliferation assay, cell line A-549
  IC50: 9.89 µM
Homo sapiens, A704, read-out: IC50 in cell proliferation assay, cell line A-704
  IC50: 27 µM
Homo sapiens, A-375, read-out: IC50 in cell proliferation assay, cell line A-375 (BRAF p.V600E)
  IC50: 14.9 µM
Homo sapiens, A-427, read-out: IC50 in cell proliferation assay, cell line A-427
  IC50: 0.074 µM
Homo sapiens, ACHN, read-out: IC50 in cell proliferation assay, cell line ACHN
  IC50: 9.68 µM
Homo sapiens, AN3-CA, read-out: IC50 in cell proliferation assay, cell line AN3-CA (FGFR2 p.N549K)
  IC50: 0.697 µM
Homo sapiens, ASPC1, read-out: IC50 in cell proliferation assay, cell line AsPC-1
  IC50: 8.97 µM
Homo sapiens, AU565, read-out: IC50 in cell proliferation assay, cell line AU565 (ERBB2 amplification)
  IC50: 1.56 µM
Homo sapiens, BT-20, read-out: IC50 in cell proliferation assay, cell line BT-20
  IC50: 3.55 µM
Homo sapiens, BT-474, read-out: IC50 in cell proliferation assay, cell line BT-474 (ERBB2 amplification)
  IC50: 3.2 µM
Homo sapiens, BT-549, read-out: IC50 in cell proliferation assay, cell line BT-549
  IC50: 16.6 µM
Homo sapiens, BXPC-3, read-out: IC50 in cell proliferation assay, cell line BxPC-3
  IC50: 5.88 µM
Homo sapiens, C-33-A, read-out: IC50 in cell proliferation assay, cell line C-33 A
  IC50: 25.1 µM
Homo sapiens, CAL-27, read-out: IC50 in cell proliferation assay, cell line CAL-27
  IC50: 2.31 µM
Homo sapiens, CCF-STTG1, read-out: IC50 in cell proliferation assay, cell line CCF-STTG1
  IC50: > 31.6 µM
Homo sapiens, CCRF-CEM, read-out: IC50 in cell proliferation assay, cell line CCRF-CEM
  IC50: 4.28 µM
Homo sapiens, COLO 205, read-out: IC50 in cell proliferation assay, cell line COLO 205 (BRAF p.V600E)
  IC50: 14.1 µM
Homo sapiens, COLO-829, read-out: IC50 in cell proliferation assay, cell line COLO 829 (BRAF p.V600E)
  IC50: > 31.6 µM
Homo sapiens, DLD-1, read-out: IC50 in cell proliferation assay, cell line DLD-1
  IC50: 0.676 µM
Homo sapiens, DU-4475, read-out: IC50 in cell proliferation assay, cell line DU4475 (BRAF p.V600E)
  IC50: 0.628 µM
Homo sapiens, Daoy, read-out: IC50 in cell proliferation assay, cell line Daoy
  IC50: 9.36 µM
Homo sapiens, DoTc2-4510, read-out: IC50 in cell proliferation assay, cell line DoTc2 4510
  IC50: 1.3 µM
Homo sapiens, EOL1, read-out: IC50 in cell proliferation assay, cell line EoL-1 (FIP1L1-PDGFRA)
  IC50: 0.335 µM
Homo sapiens, FaDu, read-out: IC50 in cell proliferation assay, cell line FaDu
  IC50: 1.71 µM
Homo sapiens, G-361, read-out: IC50 in cell proliferation assay, cell line G-361 (BRAF p.V600E)
  IC50: 16.6 µM
Homo sapiens, HCC827, read-out: IC50 in cell proliferation assay, cell line HCC827 (EGFR exon19del)
  IC50: 5.4 µM
Homo sapiens, HCC4006, read-out: IC50 in cell proliferation assay, cell line HCC4006 (EGFR exon19del)
  IC50: 4.56 µM
Homo sapiens, HCT-15, read-out: IC50 in cell proliferation assay, cell line HCT 15
  IC50: 0.838 µM
Homo sapiens, HCT-116, read-out: IC50 in cell proliferation assay, cell line HCT 116
  IC50: 6.31 µM
Homo sapiens, HEC-1, read-out: IC50 in cell proliferation assay, HEC-1 cell line
  IC50: 5.84 µM
Homo sapiens, HEC-1B, read-out: IC50 in cell proliferation assay, HEC-1-B cell line (EGFR p.A864V)
  IC50: 0.943 µM
Homo sapiens, HL-60, read-out: IC50 in cell proliferation assay, HL-60 cell line
  IC50: 1.69 µM
Homo sapiens, HT, read-out: IC50 in cell proliferation assay, HT cell line
  IC50: 14.3 µM
Homo sapiens, HT-1080, read-out: IC50 in cell proliferation assay, HT-1080 cell line
  IC50: 0.314 µM
Homo sapiens, Hs746T, read-out: IC50 in cell proliferation assay, Hs 746.T cell line (MET exon14skip + amplification)
  IC50: 5.75 µM
Homo sapiens, Hs-578T, read-out: IC50 in cell proliferation assay, Hs 578T cell line
  IC50: 8.51 µM
Homo sapiens, HuTu80, read-out: IC50 in cell proliferation assay, HuTu 80 cell line
  IC50: 1.09 µM
Homo sapiens, J82, read-out: IC50 in cell proliferation assay, J82 cell line
  IC50: > 31.6 µM
Homo sapiens, Jurkat E6.1, read-out: IC50 in cell proliferation assay, Jurkat E6.1 cell line
  IC50: 12.9 µM
Homo sapiens, K562, read-out: IC50 in cell proliferation assay, K-562 cell line
  IC50: > 31.6 µM
Homo sapiens, KATO III, read-out: IC50 in cell proliferation assay, KATO III cell line (FGFR2 amplification)
  IC50: 2.79 µM
Homo sapiens, KG-1, read-out: IC50 in cell proliferation assay, KG-1 cell line (FGFR1OP2-FGFR1)
  IC50: 27.7 µM
Homo sapiens, KLE, read-out: IC50 in cell proliferation assay, KLE cell line
  IC50: 5.79 µM
Homo sapiens, KMS-11, read-out: IC50 in cell proliferation assay, KMS-11 cell line (FGFR3 p.Y373C)
  IC50: 1.53 µM
Homo sapiens, KU812, read-out: IC50 in cell proliferation assay, Ku812 cell line
  IC50: 0.075 µM
Homo sapiens, Kasumi 1, read-out: IC50 in cell proliferation assay, Kasumi-1 cell line (KIT p.N822K)
  IC50: 1.9 µM
Homo sapiens, LC-2-ad, read-out: IC50 in cell proliferation assay, LC-2/ad cell line (CCDC6-RET)
  IC50: 4.5 µM
Homo sapiens, LNCaP-Clone-FGC, read-out: IC50 in cell proliferation assay, LNCaP clone FGC cell line
  IC50: > 31.6 µM
Homo sapiens, LS174T, read-out: IC50 in cell proliferation assay, LS174T cell line
  IC50: 1.9 µM
Homo sapiens, LS-411N, read-out: IC50 in cell proliferation assay, LS411N cell line (BRAF p.V600E)
  IC50: 17.4 µM
Homo sapiens, LoVo, read-out: IC50 in cell proliferation assay, LoVo cell line
  IC50: 20.5 µM
Homo sapiens, MCF7, read-out: IC50 in cell proliferation assay, MCF-7 cell line
  IC50: 2.79 µM
Homo sapiens, MDA-MB-231, read-out: IC50 in cell proliferation assay, MDA-MB-231 cell line
  IC50: > 31.6 µM
Homo sapiens, MDA-MB-453, read-out: IC50 in cell proliferation assay, MDA-MB-453 cell line
  IC50: 6.03 µM
Homo sapiens, MDA-MB-468, read-out: IC50 in cell proliferation assay, MDA-MB-468 cell line
  IC50: 9.8 µM
Homo sapiens, MG-63, read-out: IC50 in cell proliferation assay, MG-63 cell line
  IC50: 3.87 µM
Homo sapiens, MIA PaCa-2, read-out: IC50 in cell proliferation assay, MIA PaCa-2 cell line
  IC50: 10.7 µM
Homo sapiens, MKN-45, read-out: IC50 in cell proliferation assay, MKN45 cell line (MET amplification)
  IC50: 1.23 µM
Homo sapiens, MOLM-13, read-out: IC50 in cell proliferation assay, MOLM-13 cell line (FLT3 ITD)
  IC50: 3.48 µM
Homo sapiens, MOLT-4, read-out: IC50 in cell proliferation assay, MOLT-4 cell line
  IC50: 0.701 µM
Homo sapiens, MV4-11, read-out: IC50 in cell proliferation assay, MV4-11 cell line (FLT3 ITD)
  IC50: 10.5 µM
Homo sapiens, MeWo, read-out: IC50 in cell proliferation assay, MeWo cell line
  IC50: > 31.6 µM

From PMC9516332 (Frontiers in Oncology, 2022)
